Read-outs that look alike come from different tables or passages of the source.
How the values were obtained:
[1] = Pharmacokinetic study of flunixin in young piglets, comparing administration routes (plasma LC-MS/MS); format: in vivo, piglets (swine); conditions: pig, read-out: % F (bioavailability)
Experimental: A pharmacokinetic study was conducted to compare the bioavailability of flunixin when administered buccally, intramuscularly, IV, and the transdermal routes via the perineum, ear canal, rectum, and midline in young piglets.
Piglets were administered either Banamine® Transdermal (buccal, perineum, ear canal, rectum, and midline) or Banamine®-S Injectable Solution (intravenous and intramuscular) at 5 to 6 days of age. Blood samples were collected from the piglets at 5 min, 15 min, 1 h, 2 h, 4 h, 8 h, 12 h, 24 h, 36 h, and 48 h for those treated with Banamine® Transdermal, and at 1 h, 2 h, 4 h, 8 h, 12 h, 24 h, 36 h, 48 h, 60 h, and 72 h for those treated with Banamine®-S Injectable Solution. Plasma samples were analyzed for flunixin concentration using an GLP-validated LC/MS-MS method. Swine plasma (K2EDTA) is extracted by protein precipitation with an acetonitrile solution of the internal standard (Flunixin-d3). The samples are then centrifuged, and the resulting supernatants are analyzed by LC-MS/MS using selective reaction monitoring in negative electrospray ionization mode. The ionic transitions monitored are m/z 295 to m/z 251 for Flunixin and m/z 298 to m/z 254 for the internal standard.
The following key pharmacokinetic parameters were calculated for each group (mean±standard error): […]

[2] = bovine species, same (transdermal) formulation; cited from earlier work

bioavailability ([1]; im, Intramuscular, Banamine-S Injectable Solution, piglets): 71%
bioavailability ([1]; other: buccal, Buccal, Banamine Transdermal, piglets): 40%
bioavailability ([1]; topical or ocular, Midline, Banamine Transdermal, piglets (swine)): 5%
SMILES: Cc1c(Nc2ncccc2C(=O)O)cccc1C(F)(F)F [flunixin, Flunixin]
bioavailability [2]: 44%

— US20230390260A1, “METHOD OF TREATMENT OF PAIN THROUGH BUCCAL ADMINISTRATION OF FLUNIXIN” (Intervet Inc., priority 2020, published 2023)
